pKi: −log10 of the molar value. Non-standard residues stand in square brackets, D forms with d. Residues, ends and D or L forms follow the SMILES beside them. *: point of attachment. 1Nal = N[C@@H](Cc1cccc2ccccc12)C(=O)O; Phg = N[C@H](C(=O)O)c1ccccc1; Boc = CC(C)(C)OC(=O)*

As a reminder, the pKi is −log10 of the Ki, conventionally taken in molar units.

In this test the target is T1, Cholecystokinin receptor type A (Cavia porcellus, UniProt Q63931).
T1 sequence (Q63931 whole entry): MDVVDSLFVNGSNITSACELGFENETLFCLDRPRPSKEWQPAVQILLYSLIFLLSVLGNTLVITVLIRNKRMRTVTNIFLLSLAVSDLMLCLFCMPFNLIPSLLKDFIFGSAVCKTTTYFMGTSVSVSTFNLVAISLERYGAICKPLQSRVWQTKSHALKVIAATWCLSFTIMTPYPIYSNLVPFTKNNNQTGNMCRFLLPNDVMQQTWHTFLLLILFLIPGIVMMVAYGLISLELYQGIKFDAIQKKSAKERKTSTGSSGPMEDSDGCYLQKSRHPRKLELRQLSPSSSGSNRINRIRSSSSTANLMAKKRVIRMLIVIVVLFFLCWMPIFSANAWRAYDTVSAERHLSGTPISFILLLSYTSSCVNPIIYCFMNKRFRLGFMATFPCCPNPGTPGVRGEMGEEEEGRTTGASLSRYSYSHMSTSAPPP
As to the kind of experiment: Tested for the inhibition of [3H]pCCK-8 binding to Cholecystokinin type A receptor in pancreatic membranes of guinea-pig. Format: cell membranes.
`CCCC[C@@H](NC(=O)CC(=O)N[C@@H](Cc1c[nH]c2ccccc12)C(=O)N(C)[C@@H](CCCC)C(=O)N[C@@H](CC(=O)O)C(=O)N[C@@H](Cc1ccccc1)C(N)=O)NC(=O)[C@H](Cc1ccc(CS(=O)(=O)O)cc1)NC(=O)OC(C)(C)C`: the negative logarithm of the Ki (pKi) was 5.96.
The value for `CC(C)(C)OC(=O)N[C@@H](Cc1c[nH]c2ccccc12)C(=O)N[C@@H](Cc1ccccc1)C(=O)N[C@@H](CC(=O)O)C(=O)N[C@@H](Cc1cccc2ccccc12)C(N)=O` (Boc-WFD[1Nal]-NH2) was 5.62; that for `CC(C)(C)OC(=O)N[C@@H](Cc1c[nH]c2ccccc12)C(=O)N[C@H](C(=O)N[C@@H](CC(=O)O)C(=O)N[C@@H](Cc1cccc2ccccc12)C(N)=O)c1ccccc1` (Boc-W[Phg]D[1Nal]-NH2) was 5.96.
Molecule `CN(C)C(=O)[C@H](Cc1cccc2ccccc12)NC(=O)[C@H](CC(=O)O)NC(=O)[C@@H](NC(=O)[C@H](Cc1c[nH]c2ccccc12)NC(=O)OC(C)(C)C)c1ccccc1` (Boc-W[Phg]D[1Nal]-NMe2) had a pKi of 6.00.

The values above are taken from ChEMBL document CHEMBL1127004, “Structure-based design and pharmacological properties of potent selective and systemically active CCK-B peptidomimetics” (Bioorg Med Chem Lett, 1993).
